This note sets out measurements from patent US8835422B2, “Substituted imidazoheterocycle derivatives” (Cara Therapeutics, Inc., priority 2008, dated 2014).

The structures appear in SMILES notation.

For experiment [1], the system named is acetic acid-induced writhing. Kind of experiment: Inhibition of acetic acid-induced writhing in mice. Format: in vivo, Male ICR mice. The settings on record: dose of 10 mg/kg, subcutaneous, 30 min before acetic acid; writhes over 15 min. The source says:
12: 525-562; Ramabadran and Bansinath (1986) Pharm. Res. 3: 263-270]. Intraperitoneal administration of dilute acetic acid solution causes a writhing behavior in mice. A writhe is defined as a contraction of the abdominal muscles accompanied by an extension of the forelimbs and elongation of the body. The number of writhes observed in the presence and absence of test compounds is counted to determine the analgesic activity of the compounds.
Male ICR mice, 20-40 grams in weight, were weighed and placed in individual observation chambers (usually a 4000 ml beaker) with a fine layer of rodent bedding at the bottom. To determine the activity and potency of test compounds, different doses of the compound solution or vehicle were injected subcutaneously in the back of the neck 30 minutes prior to administration of acetic acid solution. After administration of the compound or vehicle control, mice were returned to their individual observation chambers awaiting the intraperitoneal administration of acetic acid solution. Thirty minutes later, 10 ml/kg of a 0.6% (v/v) acetic acid solution was then injected into the right lower quadrant of the abdomen. Immediately after the injection, the mouse was returned to its observation chamber and the recording of the number of writhes is begun immediately. The number of writhes was counted over a 15-min period starting from the time of acetic acid injection. Raw data were analyzed using a one-way ANOVA followed by Dunnett's post-tests.
For dose-response analysis, raw data were converted to % maximum possible effect (% MPE) using the formula: % MPE=((Wc−Wv)/(0−Wv))×100, where Wc is the number of writhes in compound-treated mice and Wv is the mean number of writhes in vehicle-treated mice. The dose which elicited 50% attenuation of hypersensitivity (ED50) was determined using linear regression analysis. (Tallarida & Murray, 1987).
In general terms: Writhing tests count abdominal constrictions after an irritant is injected.

The target in experiment [2] is human CB1 receptor (hCB1) (Homo sapiens, UniProt P21554). The experiment in a line: cAMP assay (LANCE TR-FRET) in CHO-K1 cells stably expressing hCB1. Type of experiment: cell-based. Here is the method: (§1) The ability of compounds to act as agonists or inverse agonists at human CB2 and CB1 receptors (hCB2, hCB1, respectively) and at the rat CB2 receptor (rCB2) was determined by measuring changes in intracellular cAMP levels. Chinese Hamster Ovary (CHO-K1) cell lines stably expressing hCB2 (Genebank: X74328) or hCB1 (Genebank: X54937) were purchased from Euroscreen (Gosselies, Belgium). The rat CB2 receptor was expressed from genomic DNA (provided by M. Abood, California Pacific Medical Center) in CHO-K1 cells from expression plasmid vector, pcDNA3.1.
(§2) Receptor mediated responses were determined by measuring changes in intracellular cAMP using LANCE cAMP detection kit (cat #AD0264, Perkin Elmer, Wellesley, Mass.) based on time-resolved fluorescence resonance energy transfer (TR-FRET).
(§3) On the day of the experiment, cells were spun at low speed for 5 min at room temperature. […] Cell clumps were removed by filtering through cell strainer 40 μm (BD Falcon, Discovery Labware, Bedford, Mass.) and diluted to 2×10^5 cells/mL. Antibody supplied with the LANCE cAMP immunoassay kit was then added according to the manufacturer's instructions. An aliquot of cells was taken for un-induced controls. […] Cells were then incubated for 30 min at room temperature prior to adding to Proxiplates containing test compounds (final DMSO concentration was less than 0.5%) with a Multidrop bulk dispenser, followed by a sixty minute incubation at room temperature. The response was stopped by addition of the detection mix supplied with the LANCE kit. The reagents were allowed to equilibrate for three hours prior to reading on an Envision multi-mode detector (Perkin-Elmer). TR-FRET was measured using a 330-380 nm excitation filter, a 665 nm emission filter, dichroic mirror 380 nm and Z=1 mm. Cyclic AMP concentrations in each well were back-calculated from a cAMP standard curve run concurrently during each assay. Each plate contained 16 wells of forskolin stimulated cells and 16 wells of forskolin plus CP55,940-treated cells. […] Concentrations of cAMP were expressed as a percent of the difference of these two groups of wells.
Background: Changes in cAMP serve as a functional read-out for many G protein-coupled receptors.

Experiment [3] addresses T1, human CB2 receptor (hCB2) (Homo sapiens, UniProt P34972).
T1 construct: host or cells: CHO-K1
Kind of experiment: cAMP assay (LANCE TR-FRET) in CHO-K1 cells stably expressing hCB2. Format: cell-based. Here is the method:
as §1, §2, §3

Sequence of human CB1 receptor (hCB1) (P21554 whole entry): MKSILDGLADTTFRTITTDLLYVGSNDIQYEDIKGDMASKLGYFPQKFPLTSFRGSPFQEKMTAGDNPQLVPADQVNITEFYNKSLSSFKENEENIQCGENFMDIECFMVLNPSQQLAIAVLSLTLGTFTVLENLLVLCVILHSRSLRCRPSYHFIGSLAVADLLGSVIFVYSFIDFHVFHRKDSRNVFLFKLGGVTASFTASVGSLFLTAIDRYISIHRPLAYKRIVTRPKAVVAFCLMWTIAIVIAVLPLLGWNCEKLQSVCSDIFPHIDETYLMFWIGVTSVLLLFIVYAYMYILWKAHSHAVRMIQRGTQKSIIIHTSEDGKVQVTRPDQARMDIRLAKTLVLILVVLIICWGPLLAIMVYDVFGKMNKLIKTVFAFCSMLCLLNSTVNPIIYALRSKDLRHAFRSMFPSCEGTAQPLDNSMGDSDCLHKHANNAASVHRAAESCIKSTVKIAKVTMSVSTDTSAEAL
T1 sequence (P34972 whole entry): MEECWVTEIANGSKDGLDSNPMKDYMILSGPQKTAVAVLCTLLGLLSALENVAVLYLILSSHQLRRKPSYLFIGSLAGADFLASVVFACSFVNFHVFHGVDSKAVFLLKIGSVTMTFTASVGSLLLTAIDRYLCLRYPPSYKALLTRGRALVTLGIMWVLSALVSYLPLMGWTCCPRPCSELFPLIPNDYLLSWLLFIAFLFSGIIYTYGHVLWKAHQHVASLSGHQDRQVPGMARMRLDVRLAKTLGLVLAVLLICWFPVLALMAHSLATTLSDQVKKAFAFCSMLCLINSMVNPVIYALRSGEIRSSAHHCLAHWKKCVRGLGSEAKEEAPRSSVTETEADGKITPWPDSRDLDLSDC

With `CNC(=O)[C@@H](NC(=O)c1nc(-c2ccc(F)c(F)c2)n2c1CCCCC2)C(C)(C)C` [Compound 1-2, (S)-3-(3,4-difluorophenyl)-N-(3,3-dimethyl-1-(methylamino)-1-oxobutan-2-yl)-6,7,8,9-tetrahydro-5H-imidazo[1,5-a]azepine-1-carboxamide], the “% maximum possible effect (% MPE), writhing” value (“% maximum possible effect” for short) in experiment [1] was “greater than fifty”. Moreover, the EC50 in experiment [2] and in experiment [3] was 0.1 to 10 nM each time.
Take `CNC(=O)[C@@H](NC(=O)c1nc(-c2cc(F)ccc2F)n2c1CCCCC2)C(C)(C)C` [Compound 1-3, (S)-3-(2,5-difluorophenyl)-N-(3,3-dimethyl-1-(methyl-amino)-1-oxobutan-2-yl)-6,7,8,9-tetrahydro-5H-imidazo[1,5-a]azepine-1-carboxamide]: the “% maximum possible effect” value in experiment [1] is “greater than fifty”. The 50% effective concentration (EC50) in experiment [2] and in experiment [3] was 0.1 to 10 nM throughout.
As to `CNC(=O)[C@@H](NC(=O)c1nc(-c2ccc(F)c(F)c2)n2c1CCOCC2)C(C)(C)C` [Compound 1-9, (S)-3-(3,4-difluorophenyl)-N-(3,3-dimethyl-1-(methyl-amino)-1-oxobutan-2-yl)-5,6,8,9-tetrahydroimidazo[1,5-d][1,4]oxazepine-1-carboxamide], the “% maximum possible effect” value in experiment [1] is “greater than fifty”. Also, the EC50 – broadly, the midpoint of the concentration-response curve – in experiment [2] is 10 to 100 nM; in experiment [3] it was 0.1 to 10 nM.
